{"source": "ChEMBL document CHEMBL1250443", "about": "“Microarray-based method for monitoring yeast overexpression strains reveals small-molecule targets in TOR pathway” (Nat Chem Biol, 2006)", "key": {"[1]": {"experiment": "Inhibition of TOR signaling in wild-type Saccharomyces cerevisiae transformed with overexpression plasmids assessed as increased YEL070W gene expression by microarray"}, "[2]": {"experiment": "Inhibition of TOR signaling in wild-type Saccharomyces cerevisiae transformed with overexpression plasmids assessed as decreased ELP2 gene expression by microarray"}, "Saccharomyces cerevisiae [3]": {"system": "Saccharomyces cerevisiae", "experiment": "Decrease of YJL051W gene expression in wild-type Saccharomyces cerevisiae transformed with overexpression plasmids by microarray", "type": "functional"}, "[4]": {"experiment": "Inhibition of TOR signaling in wild-type Saccharomyces cerevisiae transformed with overexpression plasmids assessed as increased YOR220W gene expression by microarray"}, "[5]": {"experiment": "Inhibition of TOR signaling in wild-type Saccharomyces cerevisiae transformed with overexpression plasmids assessed as decreased HMI1 gene expression by microarray"}, "[6]": {"experiment": "Inhibition of TOR signaling in wild-type Saccharomyces cerevisiae transformed with overexpression plasmids assessed as decreased ERO1 gene expression by microarray"}, "[7]": {"experiment": "Inhibition of TOR signaling in wild-type Saccharomyces cerevisiae transformed with overexpression plasmids assessed as decreased APM2 gene expression by microarray"}, "[8]": {"experiment": "Inhibition of TOR signaling in wild-type Saccharomyces cerevisiae transformed with overexpression plasmids assessed as increased YDL063C gene expression by microarray"}, "Saccharomyces cerevisiae [9]": {"system": "Saccharomyces cerevisiae", "experiment": "Decrease of SGN1 gene expression in wild-type Saccharomyces cerevisiae transformed with overexpression plasmids by microarray", "type": "functional"}, "[10]": {"experiment": "Inhibition of TOR signaling in wild-type Saccharomyces cerevisiae transformed with overexpression plasmids assessed as increased STM1 gene expression by microarray"}, "[11]": {"experiment": "Inhibition of TOR signaling in wild-type Saccharomyces cerevisiae transformed with overexpression plasmids assessed as decreased SUT2 gene expression by microarray"}, "[12]": {"experiment": "Inhibition of TOR signaling in wild-type Saccharomyces cerevisiae transformed with overexpression plasmids assessed as increased CDC33 gene expression by microarray"}, "[13]": {"experiment": "Inhibition of TOR signaling in wild-type Saccharomyces cerevisiae transformed with overexpression plasmids assessed as decreased AZR1 gene expression by microarray"}, "[14]": {"experiment": "Inhibition of TOR signaling in wild-type Saccharomyces cerevisiae transformed with overexpression plasmids assessed as increased PZF1 gene expression by microarray"}, "[15]": {"experiment": "Inhibition of TOR signaling in wild-type Saccharomyces cerevisiae transformed with overexpression plasmids assessed as decreased ATX2 gene expression by microarray"}, "[16]": {"experiment": "Inhibition of TOR signaling in wild-type Saccharomyces cerevisiae transformed with overexpression plasmids assessed as decreased YMR034C gene expression by microarray"}, "[17]": {"experiment": "Inhibition of TOR signaling in wild-type Saccharomyces cerevisiae transformed with overexpression plasmids assessed as increased NOG1 gene expression by microarray"}, "[18]": {"experiment": "Inhibition of TOR signaling in wild-type Saccharomyces cerevisiae transformed with overexpression plasmids assessed as increased CDC54 gene expression by microarray"}, "[19]": {"experiment": "Inhibition of TOR signaling in wild-type Saccharomyces cerevisiae transformed with overexpression plasmids assessed as decreased YKL059C gene expression by microarray"}, "[20]": {"experiment": "Inhibition of TOR signaling in wild-type Saccharomyces cerevisiae transformed with overexpression plasmids assessed as increased SRP72 gene expression by microarray"}, "[21]": {"experiment": "Inhibition of TOR signaling in wild-type Saccharomyces cerevisiae transformed with overexpression plasmids assessed as decreased YKL174C gene expression by microarray"}, "[22]": {"experiment": "Inhibition of TOR signaling in wild-type Saccharomyces cerevisiae transformed with overexpression plasmids assessed as decreased APL4 gene expression by microarray"}, "[23]": {"experiment": "Inhibition of TOR signaling in wild-type Saccharomyces cerevisiae transformed with overexpression plasmids assessed as increased SAS10 gene expression by microarray"}, "[24]": {"experiment": "Inhibition of TOR signaling in wild-type Saccharomyces cerevisiae transformed with overexpression plasmids assessed as decreased YPL260W gene expression by microarray"}, "[25]": {"experiment": "Inhibition of TOR signaling in wild-type Saccharomyces cerevisiae transformed with overexpression plasmids assessed as decreased TUL1 gene expression by microarray"}, "[26]": {"experiment": "Inhibition of TOR signaling in wild-type Saccharomyces cerevisiae transformed with overexpression plasmids assessed as decreased EFR3 gene expression by microarray"}, "[27]": {"experiment": "Inhibition of TOR signaling in wild-type Saccharomyces cerevisiae transformed with overexpression plasmids assessed as decreased MSB3 gene expression by microarray"}, "[28]": {"experiment": "Inhibition of TOR signaling in wild-type Saccharomyces cerevisiae transformed with overexpression plasmids assessed as decreased FRE5 gene expression by microarray"}, "Saccharomyces cerevisiae [29]": {"system": "Saccharomyces cerevisiae", "experiment": "Increase of HMI1 gene expression in wild-type Saccharomyces cerevisiae transformed with overexpression plasmids by microarray", "type": "functional"}, "[30]": {"experiment": "Inhibition of TOR signaling in wild-type Saccharomyces cerevisiae transformed with overexpression plasmids assessed as decreased BUD8 gene expression by microarray"}, "[31]": {"experiment": "Inhibition of TOR signaling in wild-type Saccharomyces cerevisiae transformed with overexpression plasmids assessed as decreased CDC16 gene expression by microarray"}, "[32]": {"experiment": "Inhibition of TOR signaling in wild-type Saccharomyces cerevisiae transformed with overexpression plasmids assessed as decreased YLR224W gene expression by microarray"}, "[33]": {"experiment": "Inhibition of TOR signaling in wild-type Saccharomyces cerevisiae transformed with overexpression plasmids assessed as decreased GIP3 gene expression by microarray"}, "[34]": {"experiment": "Inhibition of TOR signaling in wild-type Saccharomyces cerevisiae transformed with overexpression plasmids assessed as increased SSE1 gene expression by microarray"}, "[35]": {"experiment": "Inhibition of TOR signaling in wild-type Saccharomyces cerevisiae transformed with overexpression plasmids assessed as decreased HSD1 gene expression by microarray"}, "[36]": {"experiment": "Inhibition of TOR signaling in wild-type Saccharomyces cerevisiae transformed with overexpression plasmids assessed as increased GPM3 gene expression by microarray"}, "Saccharomyces cerevisiae [37]": {"system": "Saccharomyces cerevisiae", "experiment": "Decrease of FET4 gene expression in wild-type Saccharomyces cerevisiae transformed with overexpression plasmids by microarray", "type": "functional"}, "[38]": {"experiment": "Inhibition of TOR signaling in wild-type Saccharomyces cerevisiae transformed with overexpression plasmids assessed as decreased CAJ1 gene expression by microarray"}, "[39]": {"experiment": "Inhibition of TOR signaling in wild-type Saccharomyces cerevisiae transformed with overexpression plasmids assessed as decreased PRM6 gene expression by microarray"}, "[40]": {"experiment": "Inhibition of TOR signaling in wild-type Saccharomyces cerevisiae transformed with overexpression plasmids assessed as increased BRE1 gene expression by microarray"}, "[41]": {"experiment": "Inhibition of TOR signaling in wild-type Saccharomyces cerevisiae transformed with overexpression plasmids assessed as increased RTT106 gene expression by microarray"}, "[42]": {"experiment": "Inhibition of TOR signaling in wild-type Saccharomyces cerevisiae transformed with overexpression plasmids assessed as increased HSP104 gene expression by microarray"}, "[43]": {"experiment": "Inhibition of TOR signaling in wild-type Saccharomyces cerevisiae transformed with overexpression plasmids assessed as increased IML2 gene expression by microarray"}, "Saccharomyces cerevisiae [44]": {"system": "Saccharomyces cerevisiae", "experiment": "Decrease of YDR222W gene expression in wild-type Saccharomyces cerevisiae transformed with overexpression plasmids by microarray", "type": "functional"}, "[45]": {"experiment": "Inhibition of TOR signaling in wild-type Saccharomyces cerevisiae transformed with overexpression plasmids assessed as decreased HPA2 gene expression by microarray"}}, "data": [{"molecule": "CO[C@H]1C[C@@H]2CC[C@@H](C)[C@@](O)(O2)C(=O)C(=O)N2CCCC[C@H]2C(=O)O[C@H]([C@H](C)C[C@@H]2CC[C@@H](O)[C@H](OC)C2)CC(=O)[C@H](C)/C=C(\\C)[C@@H](O)[C@@H](OC)C(=O)[C@H](C)C[C@H](C)/C=C/C=C/C=C/1C", "note": "[SIROLIMUS]", "values": [{"measurement": "fold change (FC)", "setting": "[1]", "value": 3}, {"measurement": "fold change (FC)", "setting": "[2]", "value": -8.1}, {"measurement": "fold change (FC)", "setting": "Saccharomyces cerevisiae [3]", "value": -2.5}, {"measurement": "fold change (FC)", "setting": "[4]", "value": 3.2}, {"measurement": "fold change (FC)", "setting": "[5]", "value": -2.3}, {"measurement": "fold change (FC)", "setting": "[6]", "value": -2.3}, {"measurement": "fold change (FC)", "setting": "[7]", "value": -2.4}, {"measurement": "fold change (FC)", "setting": "[8]", "value": 2.5}, {"measurement": "fold change (FC)", "setting": "Saccharomyces cerevisiae [9]", "value": -2.1}, {"measurement": "fold change (FC)", "setting": "[10]", "value": 5.7}, {"measurement": "fold change (FC)", "setting": "[11]", "value": -3.8}, {"measurement": "fold change (FC)", "setting": "[12]", "value": 2}, {"measurement": "fold change (FC)", "setting": "[13]", "value": -3.1}, {"measurement": "fold change (FC)", "setting": "[14]", "value": 2.1}, {"measurement": "fold change (FC)", "setting": "[15]", "value": -2}, {"measurement": "fold change (FC)", "setting": "[16]", "value": -4.4}, {"measurement": "fold change (FC)", "setting": "[17]", "value": 2.9}, {"measurement": "fold change (FC)", "setting": "[18]", "value": 4.5}, {"measurement": "fold change (FC)", "setting": "[19]", "value": -2.3}, {"measurement": "fold change (FC)", "setting": "[20]", "value": 3.4}, {"measurement": "fold change (FC)", "setting": "[21]", "value": -5.6}, {"measurement": "fold change (FC)", "setting": "[22]", "value": -2.7}, {"measurement": "fold change (FC)", "setting": "[23]", "value": 2.3}, {"measurement": "fold change (FC)", "setting": "[24]", "value": -2}, {"measurement": "fold change (FC)", "setting": "[25]", "value": -3.7}, {"measurement": "fold change (FC)", "setting": "[26]", "value": -3.1}, {"measurement": "fold change (FC)", "setting": "[27]", "value": -2}, {"measurement": "fold change (FC)", "setting": "[28]", "value": -8.1}, {"measurement": "fold change (FC)", "setting": "Saccharomyces cerevisiae [29]", "value": -2.3}, {"measurement": "fold change (FC)", "setting": "[30]", "value": -6.4}, {"measurement": "fold change (FC)", "setting": "[31]", "value": -2.3}, {"measurement": "fold change (FC)", "setting": "[32]", "value": -2.9}, {"measurement": "fold change (FC)", "setting": "[33]", "value": -2.3}, {"measurement": "fold change (FC)", "setting": "[34]", "value": 11.4}, {"measurement": "fold change (FC)", "setting": "[35]", "value": -4.5}, {"measurement": "fold change (FC)", "setting": "[36]", "value": 2.5}, {"measurement": "fold change (FC)", "setting": "Saccharomyces cerevisiae [37]", "value": -5.1}, {"measurement": "fold change (FC)", "setting": "[38]", "value": -5.6}, {"measurement": "fold change (FC)", "setting": "[39]", "value": -4.4}, {"measurement": "fold change (FC)", "setting": "[40]", "value": 4.4}, {"measurement": "fold change (FC)", "setting": "[41]", "value": 8.3}, {"measurement": "fold change (FC)", "setting": "[42]", "value": 6.3}, {"measurement": "fold change (FC)", "setting": "[43]", "value": 24.4}, {"measurement": "fold change (FC)", "setting": "Saccharomyces cerevisiae [44]", "value": 5}, {"measurement": "fold change (FC)", "setting": "[45]", "value": -2.1}]}]}
